The values that follow come from patent US20240190862A1 (AMGEN INC., priority 2019, published 2024).

Where two headings read alike, the source gives them in different places.

The target in data set [1] is GDP-bound KRAS protein (aa 1-169) G12C/C118A (Homo sapiens (Human), UniProt P01116, C118A/G12C). The data set can be described thus: Coupled Nucleotide Exchange Assay (KRAS G12C). It is filed as biochemical. As to the method: (§1) Coupled Nucleotide Exchange Assay: Purified GDP-bound KRAS protein (aa 1-169), containing either G12C or G12D, as well as C118A amino acid substitutions and an N-terminal His-tag, was pre-incubated in assay buffer (25 mM HEPES pH 7.4, 10 mM MgCl2, and 0.01% Triton X-100) with a compound dose-response titration for either 5 min or 20 hours (see Table 15). Following compound pre-incubation, purified SOS protein (aa 564-1049) and GTP (Roche 10106399001) were added to the assay wells and incubated for an additional 30 min. To determine the extent of inhibition of SOS-mediated nucleotide exchange, purified GST-tagged cRAF (aa 1-149), nickel chelate AlphaLISA acceptor beads (PerkinElmer AL108R), and AlphaScreen glutathione donor beads (PerkinElmer 6765302) were added to the assay wells and incubated for 10 minutes. The assay plates were then read on a PerkinElmer EnVision Multilabel Reader, using AlphaScreen® technology, and data were analyzed using a 4-parameter logistic model to calculate IC50 values.

In data set [2] the target is GDP-bound KRAS protein (aa 1-169) G12D/C118A (Homo sapiens (Human), UniProt P01116, C118A/G12D). Put plainly: Coupled Nucleotide Exchange Assay (KRAS G12D). The note with it: 20 h compound pre-incubation; read-out: GDP KRAS G12D 20 h Coupled Exchange IC50 IP. Format: biochemical. On the procedure:
as §1

Another data set deals with GDP-KRAS G12D (Homo sapiens, UniProt P01116, C118A/G12D). The data set can be described thus: GDP-KRAS G12D RF-MS Assay. The note with it: 100 μM inhibitor, 20 h incubation, 2 uM KRAS G12D. Format: binding. As to the method:
GDP-KRAS G12D RF-MS Assay: MS assays were performed in the following buffer: 25 mM HEPES pH 7.4, 20 mM MgCl2, 10 mM NaCl, 3% DMSO, 0.0005% CHAPS with 100 μM GDP made fresh and added to the assay buffer. The final concentration of KRAS G12D was 2 uM. Assay incubation times were 20 h and the inhibitor concentration was 100 μM. Greiner polypropylene clear V-bottom plates were used for the mass spectrometry assays. Typically, the reaction was initiated by addition of KRAS G12D to a well containing inhibitor followed by Rapidfire MS analysis. Relative % Bound values at the various incubation times were used to estimate a kobs value at 100 uM inhibitor.
RapidFire Sample Liquid handling System: The RapidFire liquid handling unit used was the RF 360 model. Solvents were delivered by Agilent 1260 Infinity pumps. The instrument control software was the Agilent RapidFire High Throughput MS-system software (v4.0.12333.14274). A single C4 Type A (Agilent technologies, G9203) SPE-cartridge was used for these experiments. A volume of 10 μL (sample loop determined) was removed from each well of a 384-well plate by using an aspiration time of 300 ms. The sample load/wash time was 6000 ms at a flow rate of 1.25 mL/min (H2O, 0.1% v/v formic acid, 0.05% v/v trifluoroacetic acid); elution time was 7000 ms (acetonitrile, 0.1% v/v formic acid, 0.05% v/v trifluoroacetic acid); re-equilibration time was 700 ms at a flow rate of 1.25 mL/min (H2O, 0.1% v/v formic acid, 0.05% v/v trifluoroacetic acid).
Mass Spectrometry: Mass spectrometric data was acquired on an Agilent 6530 quadrupole time-of-flight (ToF) MS system, operated with a dual Agilent Jet Spray (AJS) ion source, in positive ionization mode. The instrument parameters were as follows: gas temperature 350° C.; drying gas 5 L/min; nebulizer 60 psi; sheath gas 350° C.; sheath gas flow 11 L/min; capillary 3.5 kV (0.037 μA); nozzle 1.75 kV; fragmentor 200 V; skimmer 75 V; octapole RF 800 V peak-to-peak. Data was acquired at the rate of 5 spectra/s. The mass scale was calibrated using the Agilent positive ion tune mix, over the m/z range 300-3200. The instrument control software was Agilent MassHunter Workstation Data Acquisition (vB.05.01).
Mass Spectrometry Data Processing and Informatics: All data processing was performed using a HP Z620, 64-bit, 12-processor, Windows 7 PC, using a combination of Agilent MassHunter Qualitative Analysis (B.05.00) Agilent RapidFire control software (v4.0.12333.14070) and the Agilent DA Reprocessor Offline Utilities B.05.00, Build 162. The SPE-MS data acquired from the RapidFire-MS system is typically a single SPE-MS data file composed of multiple injection events. For effective charge state extraction, SPE-peak integration and subsequent MS-spectral deconvolution, the single SPE-MS data file is split into single injection events. This is typically performed off-line and achieved through the RapidFire User Interface software, using the Agilent RapidFire control software (v4.0.12333.14070) using the Convert MS Data option. Once the individual injection-event MS-data files have been produced, they are all batch processed using the DA Reprocessor Offline Utilities (B.05.00, Build 162, Agilent). For batch processing a method file was created using Agilent MassHunter Qualitative Analysis B.05.00. The details of this method file are contained within the BioConfirm Workflow and are as follows: Integrate (MS), Integrator Selection: General, smooth option selected; detector point sampling 1; start threshold 5.0; stop threshold 0.0; filtering 5 point; peak location, top. Extract (MS): Peak Spectrum Extraction (MS) within m/z 800-1400. Deconvolute (MS) Maximum Entropy: mass range 19,000-21,000 Daltons; Mass step 1.0 Da; S/N threshold 20.0; Use limited m/z range 800-1400; adduct proton; isotope peak width automatic; minimum consecutive charge states 5. […]

The mark [3] stands for this setting: 5 min compound pre-incubation, read-out: GDP KRAS G12C 5 min Coupled Exchange IC50 IP.
The mark [4] stands for this setting: 20 h compound pre-incubation, read-out: GDP KRAS G12C 20 h Coupled Exchange IC50 IP.

Chain of GDP-bound KRAS protein (aa 1-169) G12C/C118A (P01116 other isoform, or with tags, fused parts or gaps G12C/C118A): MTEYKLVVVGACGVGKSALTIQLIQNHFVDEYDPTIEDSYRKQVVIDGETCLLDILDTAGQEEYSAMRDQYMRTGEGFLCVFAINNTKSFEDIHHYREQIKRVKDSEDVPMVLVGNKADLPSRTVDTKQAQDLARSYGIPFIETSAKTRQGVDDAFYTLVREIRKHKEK
Chain of GDP-bound KRAS protein (aa 1-169) G12D/C118A (P01116 other isoform, or with tags, fused parts or gaps G12D/C118A): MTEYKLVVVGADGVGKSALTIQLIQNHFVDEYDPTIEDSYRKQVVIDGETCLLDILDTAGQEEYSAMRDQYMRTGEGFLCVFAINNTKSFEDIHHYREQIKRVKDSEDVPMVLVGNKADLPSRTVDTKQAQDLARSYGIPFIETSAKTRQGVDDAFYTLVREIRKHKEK

As for `Cc1ccnc(C(C)C)c1-n1c(=O)nc(N[C@@H]2CCN(C(=O)C3CO3)C2)c2cc(Cl)c(-c3ccccc3F)nc21` (stereo partly drawn) [Example 32, 6-Chloro-7-(2-fluorophenyl)-1-(2-isopropyl-4-methylpyridin-3-yl)-4-(((3R)-1-(oxirane-2-carbonyl)pyrrolidin-3-yl)amino)pyrido[2,3-d]pyrimidin-2(1H)-one], the IC50 was 101 µM in data set [1] (setting [3]), 1.85 µM in data set [1] (setting [4]) and > 250 µM in data set [2]. The “GDP-KRAS G12D RF-MS 100 μM 20 h Relative % Bound” value on GDP-KRAS G12D was found to be 3.1%.

Turning to `Cc1ccnc(C(C)C)c1-n1c(=O)nc(N2CCCC3C2CN3C(=O)C2CO2)c2cc(Cl)c(-c3ccccc3F)nc21` (centres unmarked) [Example 33, 6-Chloro-7-(2-fluorophenyl)-1-(2-isopropyl-4-methylpyridin-3-yl)-4-(7-(oxirane-2-carbonyl)-2,7-diazabicyclo[4.2.0]octan-2-yl)pyrido[2,3-d]pyrimidin-2(1H)-one], the IC50 is 60.9 µM in data set [1] (setting [3]), 0.261 µM in data set [1] (setting [4]) and > 250 µM in data set [2]. Further, the “GDP-KRAS G12D RF-MS 100 μM 20 h Relative % Bound” value at GDP-KRAS G12D was 2%.

`Cc1ccnc(C(C)C)c1-n1c(=O)nc(N2CCC[C@H](NC(=O)C3CO3)C2)c2cc(Cl)c(-c3ccccc3F)nc21` (stereo partly drawn) [Example 34, N—((S)-1-(6-Chloro-7-(2-fluorophenyl)-1-(2-isopropyl-4-methylpyridin-3-yl)-2-oxo-1,2-dihydropyrido[2,3-d]pyrimidin-4-yl)piperidin-3-yl)oxirane-2-carboxamide]: the IC50 in data set [1] (setting [3]), in data set [1] (setting [4]) and in data set [2] was > 250 µM in each case. Further, the “GDP-KRAS G12D RF-MS 100 μM 20 h Relative % Bound” value at GDP-KRAS G12D is recorded as 2.9%.

On to `Cc1ccnc(C(C)C)c1-n1c(=O)nc(N2C[C@@H](C)N(C(=O)[C@H]3CO3)C[C@@H]2C)c2cc(Cl)c(-c3c(O)cccc3F)nc21` [Example 36, 6-Chloro-4-((2S,5R)-2,5-dimethyl-4-((R)-oxirane-2-carbonyl)piperazin-1-yl)-7-(2-fluoro-6-hydroxyphenyl)-1-(2-isopropyl-4-methylpyridin-3-yl)pyrido[2,3-d]pyrimidin-2(1H)-one], for which the IC50 in data set [1] (setting [3]) was 0.653 µM; in data set [1] (setting [4]), 0.024 µM; in data set [2] it was > 250 µM. On GDP-KRAS G12D, the “GDP-KRAS G12D RF-MS 100 μM 20 h Relative % Bound” value is recorded as 8.1%.

Take `Cc1ccnc(C(C)C)c1-n1c(=O)nc(NC2CN(C(=O)C3CO3)C2)c2cc(Cl)c(-c3ccccc3F)nc21` (centres unmarked) [Example 31, 6-Chloro-7-(2-fluorophenyl)-1-(2-isopropyl-4-methylpyridin-3-yl)-4-((1-(oxirane-2-carbonyl)azetidin-3-yl)amino)pyrido[2,3-d]pyrimidin-2(1H)-one]: the IC50 is 146 µM in data set [1] (setting [3]), 1.57 µM in data set [1] (setting [4]) and > 250 µM in data set [2]. For the same compound, the “GDP-KRAS G12D RF-MS 100 μM 20 h Relative % Bound” value at GDP-KRAS G12D worked out at 2.2%.

On to `Cc1ccnc(C(C)C)c1-n1c(=O)nc(N2CCN(C(=O)[C@H]3CO3)C[C@@H]2C)c2cc(Cl)c(-c3ccccc3F)nc21` (atropisomer, axis not shown) [Example 16, 6-Chloro-7-(2-fluorophenyl)-1-(2-isopropyl-4-methylpyridin-3-yl)-4-((S)-2-methyl-4-((R)-oxirane-2-carbonyl)piperazin-1-yl)pyrido[2,3-d]pyrimidin-2(1H)-one], for which the IC50 in data set [1] (setting [3]) turned out to be 3.78 µM; in data set [1] (setting [4]), 0.027 µM; in data set [2] it was 190 µM. Moreover, on GDP-KRAS G12D, the “GDP-KRAS G12D RF-MS 100 μM 20 h Relative % Bound” value was found to be 3.4%.

As for `Cc1ccnc(C(C)C)c1-n1c(=O)nc(N2C[C@@H](C)N(C(=O)[C@H]3CO3)C[C@@H]2C)c2cc(Cl)c(-c3c(N)cccc3F)nc21` [Example 37, 7-(2-Amino-6-fluorophenyl)-6-chloro-4-((2S,5R)-2,5-dimethyl-4-((R)-oxirane-2-carbonyl)piperazin-1-yl)-1-(2-isopropyl-4-methylpyridin-3-yl)pyrido[2,3-d]pyrimidin-2(1H)-one], the IC50 is 0.56 µM in data set [1] (setting [3]), 0.015 µM in data set [1] (setting [4]) and > 250 µM in data set [2]. At GDP-KRAS G12D, the “GDP-KRAS G12D RF-MS 100 μM 20 h Relative % Bound” value came to 15.8%.

For `Cc1ccnc(C(C)C)c1-n1c(=O)nc(N(C)C2CN(C(=O)[C@H]3CO3)C2)c2cc(Cl)c(-c3ccccc3F)nc21` [Example 30, (R)-6-chloro-7-(2-fluorophenyl)-1-(2-isopropyl-4-methylpyridin-3-yl)-4-(methyl(1-(oxirane-2-carbonyl)azetidin-3-yl)amino)pyrido[2,3-d]pyrimidin-2(1H)-one], the IC50 in data set [1] (setting [3]) was > 250 µM; in data set [1] (setting [4]) it was > 31.3 µM; in data set [2], > 250 µM. The “GDP-KRAS G12D RF-MS 100 μM 20 h Relative % Bound” value at GDP-KRAS G12D is 1.4%.

Turning to `Cc1ccnc(C(C)C)c1-n1c(=O)nc(N2CCN(C(=O)COc3c(F)cc(F)cc3F)C[C@@H]2C)c2cc(Cl)c(-c3ccccc3F)nc21` [Example 11, (S)-6-Chloro-7-(2-fluorophenyl)-1-(2-isopropyl-4-methylpyridin-3-yl)-4-(2-methyl-4-(2-(2,4,6-trifluorophenoxy)acetyl)piperazin-1-yl)pyrido[2,3-d]pyrimidin-2(1H)-one], the results for the IC50 in data set [1] (setting [3]), in data set [1] (setting [4]) and in data set [2] were 69.8 µM, 5.45 µM and > 250 µM, respectively.

Consider `Cc1ccnc(C(C)C)c1-n1c(=O)nc(N2CCN(C(=O)[C@@H]3CO3)C[C@@H]2C)c2cc(Cl)c(-c3ccccc3F)nc21` [Example 15, 6-Chloro-7-(2-fluorophenyl)-1-(2-isopropyl-4-methylpyridin-3-yl)-4-((S)-2-methyl-4-((S)-oxirane-2-carbonyl)piperazin-1-yl)pyrido[2,3-d]pyrimidin-2(1H)-one], for which the IC50 in data set [1] (setting [3]) was 74.1 µM; in data set [1] (setting [4]), 0.83 µM; in data set [2] it was > 250 µM.

`Cc1ccnc(C(C)C)c1-n1c(=O)nc(N2CCN(C(=O)COc3ccccc3)C[C@@H]2C)c2cc(Cl)c(-c3ccccc3F)nc21` [Example 6, (S)-6-Chloro-7-(2-fluorophenyl)-1-(2-isopropyl-4-methylpyridin-3-yl)-4-(2-methyl-4-(2-phenoxyacetyl)piperazin-1-yl)pyrido[2,3-d]pyrimidin-2(1H)-one]: the IC50 is > 250 µM in data set [1] (setting [3]), 131 µM in data set [1] (setting [4]) and > 250 µM in data set [2].

What is called IC50 is the concentration at which inhibition is half-maximal.
